Assay results as given in patent publication US7265135B2 (Ortho-McNeil Pharmaceutical, Inc., priority 2001, dated 2007).

What follows are compounds tested against T1, human histamine H3 receptor (Homo sapiens, UniProt Q9Y5N1) (assay: [3H]-N-methylhistamine binding assay). Details: membranes of histamine H3 receptor-expressing SK-N-MC cells; 0.8 nM [3H]-N-methylhistamine; 45 min at 25° C.; Ki=(IC50)/(1+([L]/(KD)).
T1 construct: One μg supercoiled H3 receptor cDNA was added to the cells and mixed; expressed in transfected cells; membranes prepared from cell pellets
T1 sequence (Q9Y5N1 whole entry): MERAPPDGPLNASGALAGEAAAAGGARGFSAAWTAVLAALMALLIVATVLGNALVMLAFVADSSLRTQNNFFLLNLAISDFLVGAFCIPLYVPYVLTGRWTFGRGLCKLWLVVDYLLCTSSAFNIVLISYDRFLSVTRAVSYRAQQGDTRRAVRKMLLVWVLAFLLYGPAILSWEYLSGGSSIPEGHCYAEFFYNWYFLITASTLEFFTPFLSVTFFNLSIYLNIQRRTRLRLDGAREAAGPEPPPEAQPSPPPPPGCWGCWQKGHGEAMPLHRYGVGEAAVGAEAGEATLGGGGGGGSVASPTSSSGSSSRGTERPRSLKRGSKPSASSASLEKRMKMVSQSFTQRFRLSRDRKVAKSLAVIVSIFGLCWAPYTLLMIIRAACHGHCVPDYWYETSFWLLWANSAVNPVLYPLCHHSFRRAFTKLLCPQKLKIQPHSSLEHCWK
Experimental: The histamine H3 receptor binding effectiveness of compounds of the present invention was determined using the human histamine H3 receptor, Lovenberg et al Mol. Pharmacol. 1999, 1107. Screening using the human receptor is particularly important for the identification of new therapies for the treatment of human disease. Prior binding assays, for example, relied on rat synaptosomes (Garbarg et al J. Pharmacol. Exp. Ther. 1992, 263, 304), rat cortical membranes (West et al Mol. Pharmacol. 1990, 610), and guinea pig brain (Korte et al Biochem. Biophys. Res. Commun. 1990, 978). A recent comparative study comparing human H3 receptor activity with H3 receptors from rodent and primate have shown significant differences in the respective pharmacology of the rodent and primate receptors to the human receptor. (West et al Eur. J. Pharmacol. 1999, 233; Lovenberg et al., J. Pharmacol. Exp. Ther. 2000, 293, 771-778.)
A 10 cm tissue culture dish with a confluent monolayer of SK-N-MC cells was split two days prior to transfection. Using sterile technique the media was removed and the cells were detached from the dish by the addition of trypsin. One fifth of the cells were then placed onto a new 10 cm dish. Cells were grown in a 37° C. incubator with 5% CO2 in Minimal Essential Media Eagle with 10% Fetal Bovine Serum. After two days cells were approximately 80% confluent. These were removed from the dish with trypsin and pelleted in a clinical centrifuge. The pellet was then re-suspended in 400 μL complete media and transferred to an electroporation cuvette with a 0.4 cm gap between the electrodes (Bio-Rad #165-2088). One μg supercoiled H3 receptor cDNA was added to the cells and mixed. The voltage for the electroporation was set at 0.25 kV, the capacitance is set at 960 μF. After electroporation the cells were diluted into 10 mL complete media and plated onto four 10 cm dishes. Because of the variability in the efficiency of electroporation four different concentrations of cells were plated. The ratios used were; 1:20, 1:10, 1:5, with the remainder of the cells being added to the fourth dish. The cells were allowed to recover for 24 h before adding the selection media (complete media with 600 μg/mL G418). After 10 days dishes were analyzed for surviving colonies of cells. Dishes with well isolated colonies were used. Cells from individual colonies were isolated and tested. SK-N-MC cells were used because they give efficient coupling for inhibition of adenylate cyclase. The clones that gave the most robust inhibition of adenylate cyclase in response to histamine were used for further study.
Cell pellets from histamine H3 receptor-expressing SK-N-MC cells were homogenized in 20 mM Tris HCl/0.5 mM EDTA. Supernatants from a 800 g spin were collected, recentrifuged at 30,000 g for 30 minutes. Pellets were re-homogenized in 50 mM Tris/5 mM EDTA (pH 7.4). Membranes were incubated with 0.8 nM [^3H]-N-methylhistamine plus/minus test compounds for 45 min at 25° C. and harvested by rapid filtration over GF/C glass fiber filters (pretreated with 0.3% polyethylenimine) followed by four washes with ice cold buffer. Filters were dried, added to 4 mL scintillation cocktail and then counted on a liquid scintillation counter. Non-specific binding was defined with 10 μM histamine. PKi values were calculated based on a KD of 800 pM and a ligand concentration ([L]) of 800 pM according to the formula: Ki=(IC50)/(1+([L]/(KD))
For `Cn1c(CN2CCCCC2)cnc1OCCCN1CCCCC1` [[3-Methyl-2-(3-piperidin-1-yl-propoxy)-3H-imidazol-4-yl]-piperidin-1-yl-methane], the Ki was 36.4 nM. For `CC(C)N1CCC(COc2ncc(C(=O)c3cc(Cl)cc(Cl)c3)n2C)CC1` [(3,5-Dichlorophenyl)-[2-(1-isopropyl-piperidin-4-ylmethoxy)-3-methyl-3H-imidazol-4-yl]-methanone], the Ki was 4 nM. `CCC(C)N1CCC(COc2ncc(C(=O)c3ccc(Br)cc3)n2C)CC1` (stereo not shown) [(4-Bromophenyl)-[2-(1-sec-butyl-piperidin-4-ylmethoxy)-3-methyl-3H-imidazol-4-yl]-methanone] showed a Ki of 9 nM. Work on `Cn1c(C(=O)c2ccc(Cl)cc2)cnc1SCCCN1CCCCC1` [(4-Chlorophenyl)-[3-methyl-2-(3-piperidin-1-yl-propylsulfanyl)-3H-imidazol-4-yl]-methanone] yielded a Ki of 3.1 nM. In the case of `CN(C)CCSc1ncc(C(=O)c2ccc(Cl)cc2)n1C` [(4-Chloro-phenyl)-[2-(2-dimethylamino-ethylsulfanyl)-3-methyl-3H-imidazol-4-yl]methanone], the Ki is reported as 98 nM. In the case of `CC(C)N1CCC(COc2ncc(C(=O)c3ccc(F)cc3)n2C)CC1` [(4-Fluorophenyl)-[2-(1-isopropyl-piperidin-4-ylmethoxy)-3-methyl-3H-imidazol-4-yl]-methanone], the Ki is reported as 2.5 nM. `CC(C)N1CCC(COc2ncc(C(=O)c3ccc([N+](=O)[O-])cc3)n2C)CC1` [[2-(1-Isopropyl-piperidin-4-ylmethoxy)-3-methyl-3H-imidazol-4-yl]-(4-nitro-phenyl)-methanone] showed a Ki of 4.6 nM. In the case of `CN(C)CCCSc1ncc(C(=O)c2ccc(Br)cc2)n1C` [(4-Bromophenyl)-[2-(3-dimethylamino-propylsulfanyl)-3-methyl-3H-imidazol-4-yl]-methanone], the Ki is reported as 1.6 nM. Work on `CC(C)N1CCC(COc2ncc(C(=O)c3ccc(C(F)(F)F)cc3)n2C)CC1` [[2-(1-Isopropyl-piperidin-4-ylmethoxy)-3-methyl-3H-imidazol-4-yl]-(4-trifluoromethyl-phenyl)-methanone] yielded a Ki of 4.1 nM. `CC(C)N1CCC(COc2ncc(C(=O)c3ccc(Cl)cc3)n2C)CC1` [(4-Chlorophenyl)-[2-(1-isopropylpiperidin-4-ylmethoxy)-3-methyl-3H-imidazol-4-yl]-methanone] was tested, and the Ki was 3.7 nM. Work on `CN(C)CCCSc1ncc(C(=NO)c2ccc(Cl)cc2)n1C` (mixture of isomers) [(4-Chlorophenyl)-[2-(3-dimethylamino-propylsulfanyl)-3-methyl-3H-imidazol-4-yl]-methanone oxime] yielded a Ki of 3.2 nM. For `CC(C)N1CCC(COc2ncc(C(O)c3ccc(C#N)cc3)n2C)CC1` (stereo not shown) [4-{Hydroxy-[2-(1-isopropyl-piperidin-4-ylmethoxy)-3-methyl-3H-imidazol-4-yl]-methyl}-benzonitrile], the Ki was 7.6 nM. Compound `Cn1c(C(=O)c2cccc3ccccc23)cnc1OCCCN1CCCCC1` [[3-Methyl-2-(3-piperidin-1-yl-propoxy)-3H-imidazol-4-yl]-naphthalen-1-yl-methanone] has a Ki of 79 nM. With `CC(C)N1CCC(Oc2ncc(C(=O)c3ccc(Cl)cc3)n2C)CC1` [(4-Chlorophenyl)-[2-(1-isopropyl-piperidin-4-yloxy)-3-methyl-3H-imidazol-4-yl]-methanone] the Ki was 25 nM. `CCN1CCC(COc2ncc(C(=O)c3ccc(Br)cc3)n2C)CC1` [(4-Bromophenyl)-[2-(1-ethyl-piperidin-4-ylmethoxy)-3-methyl-3H-imidazol-4-yl]-methanone] showed a Ki of 6.6 nM. With `CC(C)N1CCC(COc2ncc(C(=O)c3ccccc3Cl)n2C)CC1` [(2-Chlorophenyl)-[2-(1-isopropyl-piperidin-4-ylmethoxy)-3-methyl-3H-imidazol-4-yl]-methanone] the Ki was 1.3 nM. `Cn1c(C(=O)c2ccc(Br)cc2)cnc1SCCCN1CCCCC1` [(4-Bromophenyl)-[3-methyl-2-(3-piperidin-1-yl-propylsulfanyl)-3H-imidazol-4-ylmethanone] was tested, and the Ki was 7.5 nM. `CN1CCCC1CCSc1ncc(C(=O)c2ccc(Cl)cc2)n1C` (stereo not shown) [(4-Chloro-phenyl)-{3-methyl-2-[2-(1-methyl-pyrrolidin-2-yl)-ethylsulfanyl]-3H-imidazol-4-yl}-methanone] gave a Ki of 2 nM. In the case of `CN1CCC(Sc2ncc(C(=O)c3ccc(Cl)cc3)n2C)CC1` [(4-Chloro-phenyl)-[3-methyl-2-(1-methyl-piperidin-4-ylsulfanyl)-3H-imidazol-4-yl]-methanone], the Ki is reported as 7 nM. Compound `CC(C)N1CCC(COc2ncc(C(=O)c3ccc(Br)cc3)n2C)CC1` [(4-Bromophenyl)-[2-(1-isopropyl-piperidin-4-ylmethoxy)-3-methyl-3H-imidazol-4-yl]-methanone] has a Ki of 5.3 nM. `CN(C)CCC[S+]([O-])c1ncc(C(=O)c2ccc(Cl)cc2)n1C` (stereo not shown) [(4-Chloro-phenyl)-[2-(3-dimethylamino-propane-1-sulfinyl)-3-methyl-3H-imidazol-4-yl]-methanone] was tested, and the Ki was 315 nM. Work on `CC(C)N1CCC(Sc2ncc(C(=O)c3ccc(Cl)cc3)n2C)CC1` [(4-Chlorophenyl)-[2-(1-isopropyl-piperidin-4-ylsulfanyl)-3-methyl-3H-imidazol-4-yl]-methanone] yielded a Ki of 3 nM. Compound `CN(C)CCCSc1ncc(C(=O)c2ccc(Cl)cc2)n1C` [(4-Chlorophenyl)-[2-(3-dimethylamino-propylsulfanyl)-3-methyl-3H-imidazol-4-yl]-methanone] has a Ki of 2 nM. `CN(C)CCCSc1ncc(Cc2ccc(Cl)cc2)n1C` [{3-[5-(4-Chlorobenzyl)-1-methyl-1H-imidazol-2-ylsulfanyl]-propyl}-dimethyl-amine] gave a Ki of 22 nM. Work on `CN(C)CCCSc1ncc(C(=O)c2ccccc2)n1C` [[2-(3-Dimethylamino-propylsulfanyl)-3-methyl-3H-imidazol-4-yl]-phenyl-methanone] yielded a Ki of 4 nM. With `CC(C)N1CCC(COc2ncc(C(=O)c3cccc(Cl)c3)n2C)CC1` [(3-Chlorophenyl)-[2-(1-isopropyl-piperidin-4-ylmethoxy)-3-methyl-3H-imidazol-4-yl]-methanone] the Ki was 2.8 nM.

Same assay, conditions: value printed in text of Example XVI Step B, no unit at the place
`CN(C)CCCS(=O)(=O)c1ncc(C(=O)c2ccc(Cl)cc2)n1C` [(4-Chlorophenyl)-[2-(3-dimethylamino-propane-1-sulfonyl)-3-methyl-3H-imidazol-4-yl]-methanone] gave a Ki of 10000 nM. In the case of `Cn1c(C(=O)c2ccc(Cl)cc2)cnc1S(=O)(=O)CCC[N+](C)(C)[O-]`, the Ki is reported as 10000 nM.
